Experiments:
[1] = system: lung graft (cardiac arrest donor lungs); experiment: Left-lung transplantation model with cardiac arrest donor lungs; pulmonary function parameters over 6 hours after transplantation; assay type: in vivo, adult mongrel dogs
From the text: The lung preserving effect of the lung graft preservative composition of this invention in the transplantation of cardiac arrest donor lungs was experimentally evaluated.
[Test substance] L-Ascorbyl DL-α-tocopheryl phosphate potassium (abbreviation: EPC-K) dissolved in modified Euro-Collins solution ^1)
[Method] The left-lung transplantation model was constructed in adult mongrel dogs and used. The donor was brought to cardiac standstill by intravenous administration of potassium chloride solution and allowed to stand at room temperature for 2 hours. Then, while Group I (n=3) was perfused with Euro-Collins solution, an organ preservative which is commonly used in lung transplantation, Group II (n=3) was perfused with the lung graft preservative composition of this invention, followed by preservation at 4° C. for 12 hours. After the lung was transplanted into the recipient, the right pulmonary artery and right main branchus were ligated and the pulmonary function parameters were determined over a period of 6 hours.

[2] = Acute toxicity LD50; design: species or system rats; settings: rat, in vivo

## Cc1c(C)c2c(c(C)c1OP(=O)(O)OC1=C(O)[C@@H]([C@@H](O)CO)OC1=O)CCC(C)(CCCC(C)CCCC(C)CCCC(C)C)O2 (mixture of isomers) [EPC-K, L-Ascorbyl DL-α-tocopheryl phosphate potassium]
[1]; 5 hours after lung transplantation, preserved at 4° C. for 12 hours, n=3
  arterial blood carbon dioxide partial pressure (PaCO2): 32.4±20.9 mmHg
[1]; 6 hours after lung transplantation, donor lung 2 h at room temperature after cardiac standstill, preserved at 4° C. for 12 hours, n=3
  arterial blood oxygen partial pressure (PaO2): 460±94 mmHg
[1]; FIG. 3, vs. Euro-Collins solution (control)
  extravascular lung water (EVLW), indicator of pulmonary edema: effective in inhibiting edema
[1]; FIG. 5, vs. Euro-Collins solution (control)
  pulmonary vascular resistance (PVR): inhibits the increase of pulmonary vascular resistance
[1]; FIG. 6, vs. Euro-Collins solution (control)
  pulmonary arterial pressure (PAP): inhibits pulmonary edema without increasing pulmonary vascular resistance
[1]; FIG. 7, vs. Euro-Collins solution (control)
  cardiac output (CO): exerts no adverse influence on the heart
[1]; after 1 and 2 hours, FIG. 4, vs. Euro-Collins solution (control)
  pulmonary blood shunt fraction: pulmonary blood shunt inhibitory effect which is significant after 1 and 2 hours
[1]; after 5 hours, vs. Group I (Euro-Collins solution), FIG. 2
  arterial blood carbon dioxide partial pressure (PaCO2), effect in words: remarkably effective
[1]; after blood reperfusion
  various parameters of pulmonary function: very favorable effects on various parameters of pulmonary function
[1]; time-points other than 1 and 2 hours, FIG. 4
  pulmonary blood shunt fraction, other time-points: This inhibitory effect was also noted at other time-points
[1]; time-points other than 6 hours, vs. Group I (Euro-Collins solution), FIG. 1
  arterial blood oxygen partial pressure (PaO2), other time-points: Results in Favor of Group II were obtained at other time-points, too
[2]; iv, i.v. (rats)
  LD50: ≥ 100 mg/kg
[2]; po, p.o. (rats)
  LD50: ≥ 5000 mg/kg
